# Laboratory results as given in article PMC6770581, “New Thalidomide-Resembling Dicarboximides Target ABC50 Protein and Show Antileukemic and Immunomodulatory Activities” (Biomolecules, 2019).
# Assays:
# K562 cells = test: Annexin V/PI or 7-AAD flow cytometry of apoptosis, K562; format: cell-based, human; conditions: K562, 5× IC50 (3 10 µM, 6 5 µM, 5 5 µM), staurosporine 1 µM; different incubation times for 3, 6 and 5
# Procedure: The phosphatidylserine on the extracellular side of cell membranes was quantified using an FITC Annexin V Apoptosis Detection Kit I (BD Pharmingen, San Diego, CA, USA) according to the manufacturer’s instruction. 10^6 cells were seeded on a 6-well plate (Nunc). […] The control cells were exposed to 1% DMSO or 1μM staurosporine. After treatment the cells were centrifuged at 700 rpm (120× g) for 5 min, washed twice with cold PBS and then resuspended in 1x binding buffer to a density of 10^6 cells/ml. 100 µL of the resuspended cells was stained in the dark with 5 μl of Annexin V-fluoroscein isothiocyanate (FITC) solution and 10 µL propidium iodide (PI) solution for 15 min at room temperature. The samples were then diluted with 400 μL of a binding buffer and within 1 h analyzed with a flow cytometer (BD FACSCalibur^TM, BD Biosciences, San Jose, CA, USA). After treatment, four populations of cells were assessed: (1) viable (neither apoptotic nor necrotic, Annexin V-FITC and PI negative), (2) apoptotic (Annexin V-FITC positive and PI negative), (3) late apoptotic (Annexin V-FITC and PI positive), and (4) necrotic (Annexin V-FITC negative and PI positive).
# 0.15 × 10^6 cells/ml were seeded on a 6-well plate (Nunclon, Thermo Fisher Scientific, Waltham, MA, USA). Following 24 h preincubation the cells were treated with either the compound or 1% DMSO (control) for 24 or 48 h. After indicated time, the cells were washed with cold PBS (w/o Mg^2+, Ca^2+), stained with Annexin V (FITC Annexin V Apoptosis Detection Kit with 7-aminoactinomycin D (7-AAD), Biolegend, San Diego, CA, USA) according to manufacturer instructions and analysed using BD FACSCalibur flow cytometer. Obtained Flow Cytometry Standard files were analyzed using BD FACSDiva Software (FACSDiva Version 6.1.3, Becton Dickinson Biosciences, San Jose, CA, USA). The experiment was performed three times in at least two technical replicates.
# IKZF1 and IKZF3 = IKZF1 and IKZF3 level by immunoblotting in MOLT-4 cells; format: cell-based, human; conditions: MOLT-4, 48 h, 3 (5 µM), 5 (10 µM), 6 (2 µM)
# Procedure: K562 or MOLT4 cells were seeded on 6-well plate (2 × 10^6 cells/well) in a RPMI 1640 medium containing 10% FBS. MOLT4 cells were exposed to 1% DMSO (vehicle control), test compounds 6 (2 µM), 3 (5 µM), 5 (10 µM). Similarly, K562 cells were exposed to 1% DMSO, test compounds 6 (1 µM), 3 (1 µM), 5 (1 µM) for 48 h. Cells treated with 100 µM thalidomide or 10 µM lenalidomide served as positive controls. After incubation, cells were centrifuged (600 rpm, 6 min, 24 °C), washed once with PBS and lysed in 20 mM Tris (pH 7.2) containing 1% Triton X-100 supplemented with Complete® protease inhibitors cocktail (Roche). The levels of IKZF1 and IKZF3 were assessed by immunoblotting (IB).
# Cells were lysed in TBS buffer containing 1% Triton X-100 and Complete® protease inhibitor cocktail (Roche) for 15 min on ice with occasional vortexing. Insoluble material was centrifuged (12,000 rpm, 15 min, 4 °C) and supernatants were collected. Total protein concentration was measured with DC Protein Assay (Bio-Rad, Hercules, CA, USA). Cell lysates containing 30 µg of total protein were mixed with Laemli buffer supplemented with SDS and β-mercaptoethanol, denatured (10 min, 95 °C) and subjected to sodium dodecyl sulfate polyacrylamide gel electrophoresis (SDS-PAGE) electrophoresis (4% stacking and 10% resolving gels). Resolved proteins were electrotransferred (semi-dry, 90 min, 1.5 mA/cm^2) to a 0.45 µm nitrocellulose membrane (Thermo Scientific, Waltham, MA, USA). Membranes were blocked for 2 hours in TBST buffer (20 mM Tris-HCl pH 7.5, 0.9% NaCl, 0.1% Tween 20) containing 5% BSA (BioShop, Burlington, ON, Canada) and probed with primary antibodies (overnight at 4 °C) diluted in TBST buffer with 0.5% BSA. Tubulin served as a loading control for IB experiments. Anti IKZF3 (rabbit monoclonal, dilution 1:500), anti IKZF1 (rabbit polyclonal, dilution 1:500) were from Abcam. Anti IRF4 (rabbit polyclonal, dilution 1:500) were from Cell Signaling Technology. […] Protein bands intensities were analysed using Image Quant (version 5.0, GE Healthcare Life Sciences, Pittsburgh, PA, USA).
Structure (SMILES),"apoptotic cells, early (LR) and late (UR) (K562 cells)",level of IKZF1 and IKZF3 (immunoblotting) (IKZF1 and IKZF3)
CCC12C(=O)C(CC)(C(c3ccccc3)=C1c1ccccc1)C1C(=O)N(CCN3CCCCC3)C(=O)C12 (stereo not drawn) [Compound 3],about 44%,modest reduction
CCC12C(=O)C(CC)(C(c3ccccc3)=C1c1ccccc1)C1C(=O)N(CC(O)CNC(C)C)C(=O)C12 (stereo not drawn) [Compound 5],more than 90%,significant diminution
CN(C)CCN1C(=O)C2C(C1=O)C1(c3ccccc3)CC2(c2ccccc2)C(c2ccccc2)=C1c1ccccc1 (stereo not drawn) [Compound 6],more than 90%,significant diminution
